Data from patent US8933230B2, “Phosphorus-containing group-substituted quinoline, its preparation process, medical composition containing the compounds and application” (priority 2011, dated 2015).

Legend:
Experiment in all cases: KinomeScan kinase panel
Format in all cases: binding
PAKC-beta = target: T1, PAKC-beta (Homo sapiens, UniProt P22694)
T1 construct: purchased DiscoveRx Corporation (KinomeScan)
Summary of the method: (§1)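 The compound was profiled across a 442-kinase KinomeScan binding panel at a fixed concentration of 1000 nM; values reflect inhibitory effect at that one dose.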

MYLK2 = target: T2, MYLK2 (Homo sapiens, UniProt Q9H1R3)
T2 construct: purchased DiscoveRx Corporation (KinomeScan)
Summary of the method: as §1

YSK4 = target: T3, YSK4 (Homo sapiens, UniProt Q56UN5)
T3 construct: purchased DiscoveRx Corporation (KinomeScan service)
Summary of the method: as §1

EPHB4 = target: T4, EPHB4 (Homo sapiens, UniProt P54760)
T4 construct: purchased DiscoveRx Corporation (KinomeScan)
Summary of the method: as §1

MARK2 = target: T5, MARK2 (Homo sapiens, UniProt Q7KZI7)
T5 construct: purchased DiscoveRx Corporation (KinomeScan)
Summary of the method: as §1

MKK7 = target: T6, MKK7 (Homo sapiens, UniProt O14733)
T6 construct: purchased DiscoveRx Corporation (KinomeScan)
Summary of the method: as §1

GRK1 = target: T7, GRK1 (Homo sapiens, UniProt Q15835)
T7 construct: purchased DiscoveRx Corporation (KinomeScan)
Summary of the method: as §1

CDK7 = target: T8, CDK7 (Homo sapiens, UniProt P50613)
T8 construct: purchased DiscoveRx Corporation (KinomeScan)
Summary of the method: as §1

PIK3CA = target: T9, PIK3CA (Homo sapiens, UniProt P42336)
T9 construct: purchased DiscoveRx Corporation (KinomeScan)
Summary of the method: as §1

AURKC = target: T10, AURKC (Homo sapiens, UniProt Q9UQB9)
T10 construct: purchased DiscoveRx Corporation (KinomeScan)
Summary of the method: as §1

DMPK = target: T11, DMPK (Homo sapiens, UniProt Q09013)
T11 construct: purchased DiscoveRx Corporation (KinomeScan)
Summary of the method: as §1

PIK4CB = target: T12, PIK4CB (Homo sapiens, UniProt Q9UBF8)
T12 construct: purchased DiscoveRx Corporation (KinomeScan)
Summary of the method: as §1

MEK3 = target: T13, MEK3 (Homo sapiens, UniProt P46734)
T13 construct: purchased DiscoveRx Corporation (KinomeScan)
Summary of the method: as §1

NEK9 = target: T14, NEK9 (Homo sapiens, UniProt Q8TD19)
T14 construct: purchased DiscoveRx Corporation (KinomeScan panel)
Summary of the method: as §1

EPHB3 = target: T15, EPHB3 (Homo sapiens, UniProt P54753)
T15 construct: purchased DiscoveRx Corporation (KinomeScan)
Summary of the method: as §1

DRAK1 = target: T16, DRAK1 (Homo sapiens, UniProt Q9UEE5)
T16 construct: purchased DiscoveRx Corporation (KinomeScan)
Summary of the method: as §1

EGFR(S752-1759del) = target: T17, EGFR(S752-1759del) (Homo sapiens, UniProt P00533, DEL752-759)
T17 construct: purchased DiscoveRx Corporation (KinomeScan)
Summary of the method: as §1

MUSK = target: T18, MUSK (Homo sapiens, UniProt O15146)
T18 construct: purchased DiscoveRx Corporation (KinomeScan)
Summary of the method: as §1

PLK3 = target: T19, PLK3 (Homo sapiens, UniProt Q9H4B4)
T19 construct: purchased DiscoveRx Corporation (KinomeScan)
Summary of the method: as §1

RIPK1 = target: T20, RIPK1 (Homo sapiens, UniProt Q13546)
T20 construct: purchased DiscoveRx Corporation
Summary of the method: as §1

VRK2 = target: T21, VRK2 (Homo sapiens, UniProt Q86Y07)
T21 construct: purchased DiscoveRx Corporation (KinomeScan service)
Summary of the method: as §1

TLK1 = target: T22, TLK1 (Homo sapiens, UniProt Q9UKI8)
T22 construct: purchased DiscoveRx Corporation (KinomeScan)
Summary of the method: as §1

TXK = target: T23, TXK (Homo sapiens, UniProt P42681)
T23 construct: purchased DiscoveRx Corporation (KinomeScan)
Summary of the method: as §1

CSNK1A1 = target: T24, CSNK1A1 (Homo sapiens, UniProt P48729)
T24 construct: purchased DiscoveRx Corporation (KinomeScan)
Summary of the method: as §1

GCN2(kin.dom.2.S808G) = target: T25, GCN2(kin.dom.2.S808G) (Homo sapiens, UniProt Q9P2K8, S808G)
T25 construct: GCN2(kin.dom.2.S808G); purchased DiscoveRx Corporation (KinomeScan)
Summary of the method: as §1

MAP4K5 = target: T26, MAP4K5 (Homo sapiens, UniProt Q9Y4K4)
T26 construct: purchased DiscoveRx Corporation (KinomeScan)
Summary of the method: as §1

ABL1-phosphorylated = target: T27, ABL1-phosphorylated (Homo sapiens, UniProt P00519)
T27 construct: purchased DiscoveRx Corporation (KinomeScan)
Summary of the method: as §1

DYRK1B = target: T28, DYRK1B (Homo sapiens, UniProt Q9Y463)
T28 construct: purchased DiscoveRx Corporation (KinomeScan)
Summary of the method: as §1

BRAF(V600E) = target: T29, BRAF(V600E) (Homo sapiens, UniProt P15056, V600E)
T29 construct: purchased DiscoveRx Corporation (KinomeScan)
Summary of the method: as §1

EPHA2 = target: T30, EPHA2 (Homo sapiens, UniProt P29317)
T30 construct: purchased DiscoveRx Corporation (KinomeScan)
Summary of the method: as §1

SLK = target: T31, SLK (Homo sapiens, UniProt Q9H2G2)
T31 construct: purchased DiscoveRx Corporation (KinomeScan)
Summary of the method: as §1

[1] = target: T32, RSK2(Kin.Dom.1-N-terminal) (Homo sapiens, UniProt P51812)
T32 construct: Kin.Dom.1; purchased DiscoveRx Corporation (KinomeScan)
Summary of the method: as §1

FLT3(N841L) = tested on: FLT3(N841L)
Summary of the method: as §1

AURKA = target: T33, AURKA (Homo sapiens, UniProt O14965)
T33 construct: purchased DiscoveRx Corporation (KinomeScan)
Summary of the method: as §1

JNK1 = target: T34, JNK1 (Homo sapiens, UniProt P45983)
T34 construct: purchased DiscoveRx Corporation (KinomeScan)
Summary of the method: as §1

T2 sequence (Q9H1R3 whole entry): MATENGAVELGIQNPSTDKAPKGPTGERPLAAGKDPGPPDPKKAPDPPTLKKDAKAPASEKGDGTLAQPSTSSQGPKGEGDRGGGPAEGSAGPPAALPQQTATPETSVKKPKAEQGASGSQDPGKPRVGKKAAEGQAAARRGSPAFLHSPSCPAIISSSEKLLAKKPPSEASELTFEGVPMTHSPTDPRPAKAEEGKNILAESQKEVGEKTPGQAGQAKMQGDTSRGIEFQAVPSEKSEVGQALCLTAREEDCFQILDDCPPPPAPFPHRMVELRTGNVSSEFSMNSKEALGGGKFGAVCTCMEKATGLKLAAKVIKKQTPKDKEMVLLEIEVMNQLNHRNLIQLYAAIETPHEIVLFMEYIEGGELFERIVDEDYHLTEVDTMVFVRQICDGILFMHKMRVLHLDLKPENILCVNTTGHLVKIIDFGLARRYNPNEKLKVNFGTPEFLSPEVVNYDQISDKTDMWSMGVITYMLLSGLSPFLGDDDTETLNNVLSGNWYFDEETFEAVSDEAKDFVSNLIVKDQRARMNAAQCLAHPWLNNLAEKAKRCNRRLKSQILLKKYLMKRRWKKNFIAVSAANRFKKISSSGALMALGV
T14 sequence (Q8TD19 whole entry): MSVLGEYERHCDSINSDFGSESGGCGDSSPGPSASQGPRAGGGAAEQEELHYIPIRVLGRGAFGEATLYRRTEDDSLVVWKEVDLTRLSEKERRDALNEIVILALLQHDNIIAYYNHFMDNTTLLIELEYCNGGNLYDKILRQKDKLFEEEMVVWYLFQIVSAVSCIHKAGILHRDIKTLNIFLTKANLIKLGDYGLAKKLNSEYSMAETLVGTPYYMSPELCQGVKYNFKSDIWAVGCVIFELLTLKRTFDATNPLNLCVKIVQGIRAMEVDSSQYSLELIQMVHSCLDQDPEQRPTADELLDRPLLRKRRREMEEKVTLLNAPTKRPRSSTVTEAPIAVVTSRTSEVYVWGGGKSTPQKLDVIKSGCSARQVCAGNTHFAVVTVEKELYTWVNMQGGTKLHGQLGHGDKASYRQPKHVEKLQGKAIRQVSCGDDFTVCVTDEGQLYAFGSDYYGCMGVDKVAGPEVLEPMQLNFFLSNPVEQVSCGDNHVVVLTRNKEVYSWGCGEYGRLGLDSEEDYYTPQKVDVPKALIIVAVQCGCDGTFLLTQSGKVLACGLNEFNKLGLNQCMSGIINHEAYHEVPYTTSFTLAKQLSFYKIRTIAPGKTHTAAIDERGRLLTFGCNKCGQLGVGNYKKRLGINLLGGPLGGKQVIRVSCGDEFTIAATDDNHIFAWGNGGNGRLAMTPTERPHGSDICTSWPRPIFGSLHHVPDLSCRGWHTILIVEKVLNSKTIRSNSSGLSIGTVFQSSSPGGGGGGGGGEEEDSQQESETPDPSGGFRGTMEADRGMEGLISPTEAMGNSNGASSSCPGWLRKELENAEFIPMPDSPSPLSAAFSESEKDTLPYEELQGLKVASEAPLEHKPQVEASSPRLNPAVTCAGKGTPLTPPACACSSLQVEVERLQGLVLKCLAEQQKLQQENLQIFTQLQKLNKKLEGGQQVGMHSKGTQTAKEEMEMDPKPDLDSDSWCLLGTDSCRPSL
T34 sequence (P45983 whole entry): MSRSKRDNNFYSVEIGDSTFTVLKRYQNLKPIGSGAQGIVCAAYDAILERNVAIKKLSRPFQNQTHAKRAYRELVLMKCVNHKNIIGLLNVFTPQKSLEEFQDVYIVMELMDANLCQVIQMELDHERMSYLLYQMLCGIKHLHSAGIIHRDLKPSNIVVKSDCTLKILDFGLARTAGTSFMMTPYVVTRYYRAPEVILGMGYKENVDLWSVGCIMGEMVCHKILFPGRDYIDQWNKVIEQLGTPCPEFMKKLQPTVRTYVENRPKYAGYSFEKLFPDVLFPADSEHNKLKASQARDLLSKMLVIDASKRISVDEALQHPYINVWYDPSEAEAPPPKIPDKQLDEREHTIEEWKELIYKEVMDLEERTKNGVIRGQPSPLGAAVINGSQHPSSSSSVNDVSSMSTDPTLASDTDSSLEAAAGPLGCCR
T11 sequence (Q09013 whole entry): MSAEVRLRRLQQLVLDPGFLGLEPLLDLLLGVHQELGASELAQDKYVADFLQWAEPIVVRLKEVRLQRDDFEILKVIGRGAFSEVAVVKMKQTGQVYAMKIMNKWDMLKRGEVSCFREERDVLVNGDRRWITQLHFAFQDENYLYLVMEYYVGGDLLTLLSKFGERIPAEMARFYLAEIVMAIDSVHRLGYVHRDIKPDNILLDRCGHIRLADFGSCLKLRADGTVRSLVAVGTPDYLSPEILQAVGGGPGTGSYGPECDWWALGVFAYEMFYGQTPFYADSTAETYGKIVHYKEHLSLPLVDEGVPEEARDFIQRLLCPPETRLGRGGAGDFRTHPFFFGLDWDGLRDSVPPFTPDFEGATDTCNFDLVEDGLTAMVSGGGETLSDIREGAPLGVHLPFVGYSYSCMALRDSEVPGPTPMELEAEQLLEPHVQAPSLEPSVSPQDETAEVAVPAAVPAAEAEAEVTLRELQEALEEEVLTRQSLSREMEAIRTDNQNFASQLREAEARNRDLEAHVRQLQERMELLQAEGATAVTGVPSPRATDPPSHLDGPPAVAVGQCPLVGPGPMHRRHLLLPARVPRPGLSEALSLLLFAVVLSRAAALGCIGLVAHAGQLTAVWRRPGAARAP
T10 sequence (Q9UQB9 whole entry): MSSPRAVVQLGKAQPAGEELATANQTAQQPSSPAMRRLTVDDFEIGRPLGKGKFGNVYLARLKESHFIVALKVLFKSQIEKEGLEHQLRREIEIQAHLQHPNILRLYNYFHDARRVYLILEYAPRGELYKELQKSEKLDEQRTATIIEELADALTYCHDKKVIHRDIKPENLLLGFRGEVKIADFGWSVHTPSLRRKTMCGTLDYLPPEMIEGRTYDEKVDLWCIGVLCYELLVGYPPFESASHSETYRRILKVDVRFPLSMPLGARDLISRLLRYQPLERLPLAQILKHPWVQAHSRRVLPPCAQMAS
T25 sequence (Q9P2K8 590-1001 S808G limits assumed): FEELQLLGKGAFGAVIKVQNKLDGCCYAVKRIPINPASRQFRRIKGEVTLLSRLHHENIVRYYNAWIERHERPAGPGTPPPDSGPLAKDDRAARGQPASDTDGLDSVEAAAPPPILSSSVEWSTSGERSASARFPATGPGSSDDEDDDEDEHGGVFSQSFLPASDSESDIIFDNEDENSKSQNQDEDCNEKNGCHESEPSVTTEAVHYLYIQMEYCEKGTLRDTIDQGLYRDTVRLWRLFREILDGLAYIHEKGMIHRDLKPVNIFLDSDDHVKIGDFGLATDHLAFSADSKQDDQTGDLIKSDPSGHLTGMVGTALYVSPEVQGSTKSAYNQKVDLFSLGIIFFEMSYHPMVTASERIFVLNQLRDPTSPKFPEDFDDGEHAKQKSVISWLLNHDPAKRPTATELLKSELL
T19 sequence (Q9H4B4 whole entry): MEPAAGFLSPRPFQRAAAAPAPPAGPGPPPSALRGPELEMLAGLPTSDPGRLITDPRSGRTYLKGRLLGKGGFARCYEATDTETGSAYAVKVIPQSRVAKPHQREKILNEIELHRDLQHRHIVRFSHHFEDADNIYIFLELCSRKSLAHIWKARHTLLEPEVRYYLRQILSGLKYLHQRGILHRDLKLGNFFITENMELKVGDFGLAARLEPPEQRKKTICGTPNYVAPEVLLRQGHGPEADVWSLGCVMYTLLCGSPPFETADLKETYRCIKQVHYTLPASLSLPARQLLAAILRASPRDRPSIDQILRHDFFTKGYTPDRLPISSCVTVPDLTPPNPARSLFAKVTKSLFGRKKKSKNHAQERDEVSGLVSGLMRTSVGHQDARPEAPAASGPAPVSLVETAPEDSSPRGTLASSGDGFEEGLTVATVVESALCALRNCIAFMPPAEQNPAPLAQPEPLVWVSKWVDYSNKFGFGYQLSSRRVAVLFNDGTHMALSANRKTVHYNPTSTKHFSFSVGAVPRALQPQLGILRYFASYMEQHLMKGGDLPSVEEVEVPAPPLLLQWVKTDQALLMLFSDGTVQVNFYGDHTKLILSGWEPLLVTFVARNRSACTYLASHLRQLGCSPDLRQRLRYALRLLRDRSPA
T7 sequence (Q15835 whole entry): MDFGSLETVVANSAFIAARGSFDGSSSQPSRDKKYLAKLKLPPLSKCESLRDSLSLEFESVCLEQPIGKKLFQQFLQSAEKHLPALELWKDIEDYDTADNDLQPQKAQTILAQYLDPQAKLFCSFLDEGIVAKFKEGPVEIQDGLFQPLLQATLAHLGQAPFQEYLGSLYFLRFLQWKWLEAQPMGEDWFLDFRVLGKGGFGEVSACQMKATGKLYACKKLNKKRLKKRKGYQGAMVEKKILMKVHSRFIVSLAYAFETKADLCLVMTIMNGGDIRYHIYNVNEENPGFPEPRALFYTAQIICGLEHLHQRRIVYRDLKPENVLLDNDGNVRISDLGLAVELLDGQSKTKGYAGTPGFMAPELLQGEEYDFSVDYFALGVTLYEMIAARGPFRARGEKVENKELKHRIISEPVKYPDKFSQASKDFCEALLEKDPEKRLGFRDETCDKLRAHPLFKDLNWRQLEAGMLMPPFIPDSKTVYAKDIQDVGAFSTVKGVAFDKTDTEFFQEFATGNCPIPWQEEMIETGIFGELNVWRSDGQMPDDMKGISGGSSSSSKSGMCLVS
T6 sequence (O14733 whole entry): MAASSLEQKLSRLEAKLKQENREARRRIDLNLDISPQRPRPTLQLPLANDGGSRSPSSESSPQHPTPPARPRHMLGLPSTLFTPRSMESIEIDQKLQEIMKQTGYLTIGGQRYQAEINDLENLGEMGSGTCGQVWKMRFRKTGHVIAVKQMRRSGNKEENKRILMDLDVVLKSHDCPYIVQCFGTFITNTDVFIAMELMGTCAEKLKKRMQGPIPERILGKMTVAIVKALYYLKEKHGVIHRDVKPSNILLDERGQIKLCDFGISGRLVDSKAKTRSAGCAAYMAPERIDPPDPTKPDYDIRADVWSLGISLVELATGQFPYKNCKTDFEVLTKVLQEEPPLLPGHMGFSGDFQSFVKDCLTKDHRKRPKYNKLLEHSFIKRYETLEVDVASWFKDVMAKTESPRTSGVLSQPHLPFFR

CCOP(=O)(CN1CCC(COc2cc3nccc(Oc4ccc(NC(=O)C5(C(=O)Nc6ccc(F)cc6)CC5)cc4F)c3cc2OC)CC1)OCC [Example 10, N1-[4-[[7-[[1-(diethoxyphosphorylmethyl)-4-piperidinyl]methoxyl]-6-methoxyl-4-quinolyl]oxyl]-3-fluorophenyl]-N1′-(4-fluorophenyl)cyclopropane-1,1-dicarboxamide]
% Ctrl@1000 nM (PAKC-beta): 100 % Ctrl
% Ctrl@1000 nM (MYLK2): 100 % Ctrl
% Ctrl@1000 nM (YSK4): 1.7 % Ctrl
% Ctrl@1000 nM (EPHB4): 12 % Ctrl
% Ctrl@1000 nM (MARK2): 100 % Ctrl
% Ctrl@1000 nM (MKK7): 100 % Ctrl
% Ctrl@1000 nM (GRK1): 100 % Ctrl
% Ctrl@1000 nM (CDK7): 15 % Ctrl
% Ctrl@1000 nM (PIK3CA): 100 % Ctrl
% Ctrl@1000 nM (AURKC): 66 % Ctrl
% Ctrl@1000 nM (DMPK): 85 % Ctrl
% Ctrl@1000 nM (PIK4CB): 100 % Ctrl
% Ctrl@1000 nM (MEK3): 100 % Ctrl
% Ctrl@1000 nM (NEK9): 66 % Ctrl
% Ctrl@1000 nM (EPHB3): 36 % Ctrl
% Ctrl@1000 nM (DRAK1): 100 % Ctrl
% Ctrl@1000 nM (EGFR(S752-1759del)): 82 % Ctrl
% Ctrl@1000 nM (MUSK): 13 % Ctrl
% Ctrl@1000 nM (PLK3): 100 % Ctrl
% Ctrl@1000 nM (RIPK1): 99 % Ctrl
% Ctrl@1000 nM (VRK2): 100 % Ctrl
% Ctrl@1000 nM (TLK1): 88 % Ctrl
% Ctrl@1000 nM (TXK): 62 % Ctrl
% Ctrl@1000 nM (CSNK1A1): 100 % Ctrl
% Ctrl@1000 nM (GCN2(kin.dom.2.S808G)): 100 % Ctrl
% Ctrl@1000 nM (MAP4K5): 2.8 % Ctrl
% Ctrl@1000 nM (ABL1-phosphorylated): 33 % Ctrl
% Ctrl@1000 nM (DYRK1B): 86 % Ctrl
% Ctrl@1000 nM (BRAF(V600E)): 100 % Ctrl
% Ctrl@1000 nM (EPHA2): 4.8 % Ctrl
% Ctrl@1000 nM (SLK): 7.4 % Ctrl
% Ctrl@1000 nM [1]: 100 % Ctrl
% Ctrl@1000 nM (FLT3(N841L)): 0 % Ctrl
% Ctrl@1000 nM (AURKA): 100 % Ctrl
% Ctrl@1000 nM (JNK1): 80 % Ctrl
